{"source": "patent US7745459B2", "about": "“Quinolizinone compound and use thereof as HIV integrase inhibitor” (Japan Tobacco Inc., priority 2004, dated 2010)", "molecular_target": "T1, HIV integrase (Human immunodeficiency virus type 1 group M subtype B, UniProt P12497, F1332H)", "T1 construct": "HIV integrase full length gene; made in house; host or cells: Escherichia coli BL21 (DE3)", "test": "Determination of enzyme (HIV integrase) inhibitory activity", "type": "biochemical", "conditions": "recombinant integrase protein (phenylalanine at codon 185 substituted by histidine); donor/target DNA, absorbance at 450 nm; read-out: Anti-integrase activity (IC50 value)", "from_the_text": "The following explains evaluation methods of the HIV integrase inhibitory activity of the compound of the present invention.\nHIV integrase full length gene (J. Virol., 67, 425-437 (1993)) in which phenylalanine at codon 185 was substituted by histidine, was inserted between the restriction enzyme NdeI and XhoI sites of plasmid pET21a(+) (Novagen), whereby an integrase expression vector pET21a-INH was constructed.\nEscherichia coli recombinant BL21 (DE3) transformed with plasmid pET21a-INH obtained in (i) was shake cultured at 37° C. in a liquid medium containing ampicillin. When the culture reached the logarithmic growth phase, isopropyl-β-D-thiogalactopyranoside was added to promote expression of integrase gene. The culture was continued for 3 hr to promote accumulation of the integrase protein. The recombinant E. coli was collected in pellets by centrifugal separation and preserved at −80° C.\nThe E. coli was suspended in Lysis buffer (20 mM HEPES (pH 7.5), 5 mM DTT, 10 mM CHAPS, 10% glycerol) containing 1 M sodium chloride and subjected to repeat pressurization and depressurization for rupture, and centrifugal separation at 4° C., 40,000×g, 60 min to recover a water-soluble fraction (supernatant). This was diluted 10-fold with Lysis buffer free of sodium chloride, mixed with SP-Sepharose (Pharmacia Corporation) and stirred at 4° C. for 60 min to allow adsorption of integrase protein to the resin. The resin was washed with Lysis buffer containing 100 mM sodium chloride and the integrase protein was eluted with Lysis buffer containing 1 M sodium chloride.\nThe eluted integrase protein solution was subjected to a Superdex 75 (Pharmacia Corporation) column for gel filtration. The protein was eluted with Lysis buffer containing 1 M sodium chloride.\nThe obtained fractions of the integrase protein were collected and preserved at −80° C.\nThe following DNA synthesized by Greiner was dissolved in TE buffer (10 mM Tris-hydrochloric acid (pH 8.0), 1 mM EDTA) and mixed with donor DNA, target DNA, and each complementary strand (+ and − strands) to 1 μM. The mixture was heated at 95° C. for 5 min, 80° C. for 10 min, 70° C. for 10 min, 60° C. for 10 min, 50° C. for 10 min and 40° C. for 10 min and kept at 25° C. to give a double stranded DNA, which was used for the test.\nThe donor DNA was diluted with TE buffer to 10 nM, of which 50 μl was added to each well of streptavidin-coated microtiter plate (Roche) and allowed to adsorb at 37° C. for 60 min. The plate was washed with phosphate buffer (Dulbecco's PBS, Sanko Junyaku Co., Ltd.) containing 0.1% Tween 20 and phosphate buffer. Then, a reaction mixture (70 μl) having the following composition, a test substance (10 μl) diluted with the reaction mixture and 100 μg/ml integrase protein (10 μl) were added to each well and reacted at 37° C. for 60 min. Composition of the reaction mixture: 30 mM MOPS (3-morpholinopropanesulfonic acid), 5 mM magnesium chloride, 3 mM DTT (dithiothreitol), 0.1 mg/ml BSA (bovine serum albumin), 5% glycerol, 10% DMSO (dimethyl sulfoxide), 0.01% Tween 20.\nThen, 50 nM target DNA (10 μl) was added, and the mixture was reacted at 37° C. for 10 min and washed with phosphate buffer containing 0.1% Tween 20 to stop the reaction.\nThen, 100 mU/ml peroxidase labeled anti-digoxigenin antibody solution (Roche, 100 μl) was added, and the mixture was reacted at 37° C. for 60 min, followed by washing with phosphate buffer containing 0.1% Tween 20.\nA peroxidase color solution (Bio Rad, 100 μl) was added and allowed to react at room temperature for 4 min. The color reaction was stopped by adding 1N sulfuric acid (100 μl). The absorbance at 450 nm was measured. […]"}
{"smiles": "COCOc1cc(C(=O)O)c(=O)n2cc(Cc3cccc(Cl)c3F)ccc12", "note": "[Example 58, 7-(3-chloro-2-fluorobenzyl)-1-methoxymethoxy-4-oxo-4H-quinolizine-3-carboxylic acid]", "values": [{"measurement": "IC50", "value": "0.1 to 1", "unit": "µM"}]}
{"smiles": "COc1cc2c([C@H](CO)C(C)(C)C)cc(C(=O)O)c(=O)n2cc1Cc1cccc(Cl)c1F", "note": "[Example 17, 7-(3-chloro-2-fluorobenzyl)-1-((R)-1-hydroxymethyl-2,2-dimethylpropyl)-8-methoxy-4-oxo-4H-quinolizine-3-carboxylic acid]", "values": [{"measurement": "IC50", "value": "< 0.01", "unit": "µM"}]}
{"smiles": "COC(=O)NCc1cc(C(=O)O)c(=O)n2cc(Cc3cccc(Cl)c3F)ccc12", "note": "[Example 24, 7-(3-chloro-2-fluorobenzyl)-1-(methoxycarbonylaminomethyl)-4-oxo-4H-quinolizine-3-carboxylic acid]", "values": [{"measurement": "IC50", "value": "0.01 to 0.1", "unit": "µM"}]}
{"smiles": "CCC(=O)NCc1cc(C(=O)O)c(=O)n2cc(Cc3cccc(Cl)c3F)ccc12", "note": "[Example 42, 7-(3-chloro-2-fluorobenzyl)-4-oxo-1-(propionylaminomethyl)-4H-quinolizine-3-carboxylic acid]", "values": [{"measurement": "IC50", "value": "0.01 to 0.1", "unit": "µM"}]}
{"smiles": "O=C(O)c1ccc2ccc(Cc3ccccc3)cn2c1=O", "note": "[Example 11, 7-benzyl-4-oxo-4H-quinolizine-3-carboxylic acid]", "values": [{"measurement": "IC50", "value": "1 to 10", "unit": "µM"}]}
{"smiles": "CO[C@@H](C)C(=O)NCc1cc(C(=O)O)c(=O)n2cc(Cc3cccc(Cl)c3F)ccc12", "note": "[Example 52, 7-(3-chloro-2-fluorobenzyl)-1-[((S)-2-methoxypropionylamino)methyl]-4-oxo-4H-quinolizine-3-carboxylic acid]", "values": [{"measurement": "IC50", "value": "0.01 to 0.1", "unit": "µM"}]}
{"smiles": "O=C(O)c1cc(CCO)c2ncc(Cc3cccc(Cl)c3F)cn2c1=O", "note": "[Example 34, 3-(3-chloro-2-fluorobenzyl)-9-(2-hydroxyethyl)-6-oxo-6H-pyrido[1,2-a]pyrimidine-7-carboxylic acid]", "values": [{"measurement": "IC50", "value": "0.1 to 1", "unit": "µM"}]}
{"smiles": "CC(C)(C)OC(=O)c1cc(C(=O)O)c(=O)n2cc(Cc3cccc(Cl)c3F)ccc12", "note": "[Example 62, 7-(3-chloro-2-fluorobenzyl)-4-oxo-4H-quinolizine-1,3-dicarboxylic acid 1-tert-butyl ester]", "values": [{"measurement": "IC50", "value": "0.1 to 1", "unit": "µM"}]}
{"smiles": "CC(C)(C)C(=O)NCc1cc(C(=O)O)c(=O)n2cc(Cc3cccc(Cl)c3F)ccc12", "note": "[Example 37, 7-(3-chloro-2-fluorobenzyl)-1-(2,2-dimethylpropionylamino)methyl-4-oxo-4H-quinolizine-3-carboxylic acid]", "values": [{"measurement": "IC50", "value": "0.01 to 0.1", "unit": "µM"}]}
{"smiles": "O=C(O)CCC(=O)NCc1cc(C(=O)O)c(=O)n2cc(Cc3cccc(Cl)c3F)ccc12", "note": "[Example 54, 1-[(3-carboxypropionylamino)methyl]-7-(3-chloro-2-fluorobenzyl)-4-oxo-4H-quinolizine-3-carboxylic acid]", "values": [{"measurement": "IC50", "value": "0.01 to 0.1", "unit": "µM"}]}
{"smiles": "O=C(O)c1cc(CO)c2ccc(Cc3cccc(Cl)c3F)cn2c1=O", "note": "[Example 18, 7-(3-chloro-2-fluorobenzyl)-1-hydroxymethyl-4-oxo-4H-quinolizine-3-carboxylic acid]", "values": [{"measurement": "IC50", "value": "0.01 to 0.1", "unit": "µM"}]}
{"smiles": "CN(C)Cc1cc(C(=O)O)c(=O)n2cc(Cc3cccc(Cl)c3F)ccc12", "note": "[Example 38, 7-(3-chloro-2-fluorobenzyl)-1-dimethylaminomethyl-4-oxo-4H-quinolizine-3-carboxylic acid]", "values": [{"measurement": "IC50", "value": "0.1 to 1", "unit": "µM"}]}
{"smiles": "COCC(=O)NCc1cc(C(=O)O)c(=O)n2cc(Cc3cccc(Cl)c3F)ccc12", "note": "[Example 40, 7-(3-chloro-2-fluorobenzyl)-1-[(2-methoxyacetylamino)methyl]-4-oxo-4H-quinolizine-3-carboxylic acid]", "values": [{"measurement": "IC50", "value": "0.01 to 0.1", "unit": "µM"}]}
{"smiles": "C[C@@H](CO)c1cc(C(=O)O)c(=O)n2cc(Cc3cccc(Cl)c3F)ccc12", "note": "[Example 14, 7-(3-chloro-2-fluorobenzyl)-1-((R)-2-hydroxy-1-methylethyl)-4-oxo-4H-quinolizine-3-carboxylic acid]", "values": [{"measurement": "IC50", "value": "0.01 to 0.1", "unit": "µM"}]}
{"smiles": "CC(C)(C)OC(=O)NCc1cc(C(=O)O)c(=O)n2cc(Cc3cccc(Cl)c3F)ccc12", "note": "[Example 35, 1-(tert-butoxycarbonylamino)methyl-7-(3-chloro-2-fluorobenzyl)-4-oxo-4H-quinolizine-3-carboxylic acid]", "values": [{"measurement": "IC50", "value": "0.01 to 0.1", "unit": "µM"}]}
{"smiles": "O=C(O)Cc1cc(C(=O)O)c(=O)n2cc(Cc3cccc(Cl)c3F)ccc12", "note": "[Example 36, 1-carboxymethyl-7-(3-chloro-2-fluorobenzyl)-4-oxo-4H-quinolizine-3-carboxylic acid]", "values": [{"measurement": "IC50", "value": "0.01 to 0.1", "unit": "µM"}]}
{"smiles": "CS(=O)(=O)Nc1cc(C(=O)O)c(=O)n2cc(Cc3cccc(Cl)c3F)ccc12", "note": "[Example 29, 7-(3-chloro-2-fluorobenzyl)-1-methylsulfonylamino-4-oxo-4H-quinolizine-3-carboxylic acid]", "values": [{"measurement": "IC50", "value": "0.1 to 1", "unit": "µM"}]}
{"smiles": "O=C(COc1ccccc1)NCc1cc(C(=O)O)c(=O)n2cc(Cc3cccc(Cl)c3F)ccc12", "note": "[Example 51, 7-(3-chloro-2-fluorobenzyl)-4-oxo-1-[(2-phenoxyacetylamino)methyl]-4H-quinolizine-3-carboxylic acid]", "values": [{"measurement": "IC50", "value": "0.01 to 0.1", "unit": "µM"}]}
{"smiles": "CCc1cc(C(=O)O)c(=O)n2cc(Cc3cccc(Cl)c3F)ccc12", "note": "[Example 4, 7-(3-chloro-2-fluorobenzyl)-1-ethyl-4-oxo-4H-quinolizine-3-carboxylic acid]", "values": [{"measurement": "IC50", "value": "0.01 to 0.1", "unit": "µM"}]}
{"smiles": "CC(C)[C@@H](CO)c1cc(C(=O)O)c(=O)n2cc(Cc3cccc(Cl)c3Cl)ccc12", "note": "[Example 63, 7-(2,3-dichlorobenzyl)-1-((R)-1-hydroxymethyl-2-methylpropyl)-4-oxo-4H-quinolizine-3-carboxylic acid]", "values": [{"measurement": "IC50", "value": "< 0.01", "unit": "µM"}]}
{"smiles": "N#Cc1cc(C(=O)O)c(=O)n2cc(Cc3cccc(Cl)c3F)ccc12", "note": "[Example 33, 7-(3-chloro-2-fluorobenzyl)-1-cyano-4-oxo-4H-quinolizine-3-carboxylic acid]", "values": [{"measurement": "IC50", "value": "0.01 to 0.1", "unit": "µM"}]}
{"smiles": "CCOCC(=O)NCc1cc(C(=O)O)c(=O)n2cc(Cc3cccc(Cl)c3F)ccc12", "note": "[Example 55, 7-(3-chloro-2-fluorobenzyl)-1-[(2-ethoxyacetylamino)methyl]-4-oxo-4H-quinolizine-3-carboxylic acid]", "values": [{"measurement": "IC50", "value": "0.01 to 0.1", "unit": "µM"}]}
{"smiles": "CCOC(=O)c1cc(NC(=O)OC(C)(C)C)c2ccc(Cc3cccc(Cl)c3F)cn2c1=O", "note": "[Example 60, ethyl 1-(tert-butoxycarbonylamino)-7-(3-chloro-2-fluorobenzyl)-4-oxo-4H-quinolizine-3-carboxylate]", "values": [{"measurement": "IC50", "value": "0.1 to 1", "unit": "µM"}]}
{"smiles": "O=C(Cc1ccccc1)NCc1cc(C(=O)O)c(=O)n2cc(Cc3cccc(Cl)c3F)ccc12", "note": "[Example 49, 7-(3-chloro-2-fluorobenzyl)-4-oxo-1-(phenylacetylaminomethyl)-4H-quinolizine-3-carboxylic acid]", "values": [{"measurement": "IC50", "value": "0.01 to 0.1", "unit": "µM"}]}
{"smiles": "CC(=O)Nc1cc(C(=O)O)c(=O)n2cc(Cc3cccc(Cl)c3F)ccc12", "note": "[Example 61, 1-acetylamino-7-(3-chloro-2-fluorobenzyl)-4-oxo-4H-quinolizine-3-carboxylic acid]", "values": [{"measurement": "IC50", "value": "0.1 to 1", "unit": "µM"}]}
